Laboratory results: patent US20210069145A1, “COMPOSITIONS AND METHODS FOR REDUCING A FATTY ACID DESATURATION INDEX IN A SUBJECT IN NEED THEREOF” (Amarin Pharmaceuticals Ireland Limited, priority 2013, published 2021)

Test system: fatty acid desaturation index (FADI), RBCs
Experiment: Fatty acid desaturation index (FADI) ratios in red blood cells, 12-week placebo-controlled study
Assay type: in vivo, human
Conditions: 4 g/day, 12 weeks, placebo-adjusted, from baseline
Protocol: A multi-center, placebo-controlled, randomized, double-blind, 12-week study was performed to evaluate the efficacy and safety of >96% E-EPA in patients with fasting triglyceride levels ≥200 mg/dl and <500 mg/dl despite statin therapy (the mean of two qualifying entry values needed to be ≥185 mg/dl and at least one of the values needed to be ≥200 mg/dl). The primary objective of the study was to determine the efficacy of >96% E-EPA 2 g daily and 4 g daily, compared to placebo, in lowering fasting TG levels in patients with high risk for cardiovascular disease and with fasting TG levels ≥200 mg/dl and <500 mg/dl, despite treatment to LDL-C goal on statin therapy.
The population for this study was men and women >18 years of age with a body mass index ≤45 kg/m^2 with fasting TG levels greater than or equal to 200 mg/dl and less than 500 mg/dl and on a stable does of statin therapy (with or without ezetimibe). The statin was atorvostatin, rosuvastatin or simvastatin. The dose of statin must have been stable for ≥4 weeks prior to the LDL-C/TG baseline qualifying measurement for randomization. The statin dose was optimized such that the patients are at their LDL-C goal at the LDL-C/TG baseline qualifying measurements. The same statin at the same dose was continued until the study ended. […]
The primary efficacy variable for the double-blind treatment period was percent change in TG from baseline to Week 12 endpoint. The secondary efficacy variables for the double-blind treatment period included the following: • Percent changes in total cholesterol (TC), high-density lipoprotein cholesterol (HDL-C), LDL-C, calculated non-HDL-C, and very low-density lipoprotein cholesterol (VLDL-C) from baseline to Week 12 endpoint; • Percent change in very low-density lipoprotein TG from baseline to Week 12; • Percent changes in apolipoprotein A-I (apo A-I), apolipoprotein B (apo B), and apo A-I/apo B ratio from baseline to Week 12; • Percent changes in lipoprotein(a) from baseline to Week 12; • Percent changes in LDL particle number and size, measured by nuclear magnetic resonance, from baseline to Week 12; • Percent change in remnant-like particle cholesterol from baseline to Week 12; • Percent change in oxidized LDL from baseline to Week 12; • Changes in FPG and HbA1c from baseline to Week 12; • Change in insulin resistance, as assessed by the homeostasis model index insulin resistance, from baseline to Week 12; • Percent change in lipoprotein associated phospholipase A2 (Lp-PLA2) from baseline to Week 12; • Change in intracellular adhesion molecule-1 from baseline to Week 12; • Change in interleukin-2 from baseline to Week 12; • Change in plasminogen activator inhibitor-1 from baseline to Week 12. […]

[1] = listed as Ethyl Eicosapentaenoate

SMILES: CC/C=C\C/C=C\C/C=C\C/C=C\C/C=C\CCCC(=O)OCC [ethyl eicosapentaenoate, all-cis eicosa-5,8,11,14,17-pentaenoic acid ethyl ester]
- FADI-16 (Palmitoleic acid/Palmitic acid, C16:1/C16:0) % Change, RBCs: significantly reduced
- FADI-18 (Oleic acid/Stearic Acid, C18:1/C18:0) % Change, RBCs: significantly reduced
- FADI-16 (Palmitoleic acid/Palmitic acid, C16:1/C16:0) % Change, RBCs [1]: −15.7%
- FADI-18 (Oleic acid/Stearic Acid, C18:1/C18:0) % Change, RBCs [1]: −3.1%
